From PubChem BioAssay (NCI)
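Tested at 5 concentrations; 48 h exposure; 96-well plates; endpoints linearly interpolated, else capped at highest concentration. At the TGI there is no net growth.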

How the values were obtained:
Experiment in all cases: growth of human tumour cells (NCI), 48 h
OVCAR-4 ovarian = tested on: OVCAR-4 ovarian
A498 renal = tested on: A498 renal
HCT-15 colon = tested on: HCT-15 colon
SN12C renal = tested on: SN12C renal
UACC-257 melanoma = tested on: UACC-257 melanoma
MALME-3M melanoma = tested on: MALME-3M melanoma
OVCAR-5 ovarian = tested on: OVCAR-5 ovarian
SW-620 colon = tested on: SW-620 colon
RXF 393 renal = tested on: RXF 393 renal
NCI/ADR-RES ovarian = tested on: NCI/ADR-RES ovarian
NCI-H23 lung = tested on: NCI-H23 lung
PC-3 prostate = tested on: PC-3 prostate
NCI-H226 lung = tested on: NCI-H226 lung
HL-60(TB) leukemia = tested on: HL-60(TB) leukemia
UO-31 renal = tested on: UO-31 renal
SF-268 CNS = tested on: SF-268 CNS
IGROV1 ovarian = tested on: IGROV1 ovarian
BT-549 breast = tested on: BT-549 breast
M14 melanoma = tested on: M14 melanoma

Structure (SMILES)	TGI (OVCAR-4 ovarian) [µM]	TGI (A498 renal) [µM]	TGI (HCT-15 colon) [µM]	TGI (SN12C renal) [µM]	TGI (UACC-257 melanoma) [µM]	TGI (MALME-3M melanoma) [µM]	TGI (OVCAR-5 ovarian) [µM]	TGI (SW-620 colon) [µM]	TGI (RXF 393 renal) [µM]	TGI (NCI/ADR-RES ovarian) [µM]	TGI (NCI-H23 lung) [µM]	TGI (PC-3 prostate) [µM]	TGI (NCI-H226 lung) [µM]	TGI (HL-60(TB) leukemia) [µM]	TGI (UO-31 renal) [µM]	TGI (SF-268 CNS) [µM]	TGI (IGROV1 ovarian) [µM]	TGI (BT-549 breast) [µM]	TGI (M14 melanoma) [µM]
Cc1c(S(=O)(=O)O)ccc(N=Nc2c(O)c(C(=O)O)cc3ccccc23)c1Cl	> 100	> 100	> 100	> 100	> 100	> 100	> 100	> 100	> 100	> 100	> 100	> 100	> 100	> 100	> 100	> 100	> 100	> 100	> 100
Cc1occc1C(=S)Nc1ccc(Cl)c(C(=O)OC(C(C)C)C(C)C)c1	41.9	27.8	33.7	30.9	19.2	26	57.2	46.2	33.7	26.3	23	25.4	32.2	29.8	17.5	45.1	31.5	34.6	35.3
COc1c(OC(C)C)c(OC(C)C)c2oc(=O)n3c2c1C(c1ccccc1-n1c(C)ccc1C)C=C3 (stereo not given)	> 100	> 100	> 100	> 100	> 100	50	> 100	> 100	62.5	> 100	> 100	> 100	38.3	> 100	> 100	> 100	> 100	> 100	> 100
C/C(=N\n1c(Cc2ccccc2)n[nH]c1=O)c1ccccc1	> 100	> 100	> 100	> 100	> 100	> 100	> 100	> 100	> 100	> 100	> 100	> 100	> 100	> 100	> 100	> 100	> 100	> 100	> 100
Cc1cccc(C)c1NC(=O)C(=O)CC(=O)/C=C/c1ccccc1	> 100	> 100	> 100	> 100	> 100	> 100	> 100	> 100	> 100	> 100	> 100	> 100	> 100	> 100	> 100	> 100	> 100	> 100	> 100
Cc1cccc2c1C(=O)[C@](C)([C@]1(C)Nc3cccc(C)c3C1=O)N2	> 100	> 100	> 100	> 100	> 100	> 100	58	> 100	> 100	> 100	77.4	> 100	> 100	0.54	51.8	55.8	> 100	62.5	> 100
O=C(c1c(F)c(F)c(F)c(F)c1F)N1CCN(C(=O)c2c(F)c(F)c(F)c(F)c2F)C1=S	10.4	32	6.15	24.5	22	15.8	29.4	3.59	9.27	32.1	20.1	21	30.8	> 100	10	32.6	8.96	27.8	4.02
CCn1c(SCC(=O)N/N=C/c2ccccc2)nc2ccccc2c1=O	72.8	65	> 100	> 100	> 100	> 94.6	> 100	> 100	27.2	> 100	> 100	> 46.4	67.6	> 100	> 100	> 70.2	> 93.1	> 100	> 100
COc1cc(S(=O)(=O)Nc2nc(-c3ccc(N4C(=O)/C(=C/C=C/c5ccccc5)N=C4c4ccccc4)cc3)cs2)ccc1Cl	> 100	> 100	> 100	> 100	> 100	> 100	> 100	> 100	> 100	> 100	> 100	> 100	> 100	> 100	> 100	> 100	> 100	94	> 100
O=C1c2ccccc2CN1c1ccc(OCCN2CCCCC2)cc1	> 10	> 10	> 10	> 10	> 10	> 10	> 10	> 10	> 10	> 10	> 10	> 10	> 10	> 10	> 10	> 10	> 10	> 10	> 10
